Patent US20080176936A1, “Classes of Compounds that Interact with Integrins” (priority 2005, published 2008)

biological target: T1, αllbβ3 integrin (Homo sapiens, UniProt P05106+P08514); test: ELISA: inhibition of binding of αllbβ3 integrin membrane preparation to coated extracellular matrix protein; conditions: substrate fibrinogen, human platelet membrane preparation
T1 construct: Human platelet membrane preparations were used as a source of αllbβ3 integrin; from tissue; host or cells: human platelets (membrane preparation)
Outline: (§1)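 Integrin sources were human platelet membrane preparations for αIIbβ3 and WM-115 cells for αVβ3, each preincubated with test compound. Binding to fibrinogen- or vitronectin-coated plates (10 µg/well) was quantified with an anti-integrin β3 antibody and an HRP-coupled secondary antibody using colorimetric detection.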

T1 sequence (P08514 32-887 limits assumed): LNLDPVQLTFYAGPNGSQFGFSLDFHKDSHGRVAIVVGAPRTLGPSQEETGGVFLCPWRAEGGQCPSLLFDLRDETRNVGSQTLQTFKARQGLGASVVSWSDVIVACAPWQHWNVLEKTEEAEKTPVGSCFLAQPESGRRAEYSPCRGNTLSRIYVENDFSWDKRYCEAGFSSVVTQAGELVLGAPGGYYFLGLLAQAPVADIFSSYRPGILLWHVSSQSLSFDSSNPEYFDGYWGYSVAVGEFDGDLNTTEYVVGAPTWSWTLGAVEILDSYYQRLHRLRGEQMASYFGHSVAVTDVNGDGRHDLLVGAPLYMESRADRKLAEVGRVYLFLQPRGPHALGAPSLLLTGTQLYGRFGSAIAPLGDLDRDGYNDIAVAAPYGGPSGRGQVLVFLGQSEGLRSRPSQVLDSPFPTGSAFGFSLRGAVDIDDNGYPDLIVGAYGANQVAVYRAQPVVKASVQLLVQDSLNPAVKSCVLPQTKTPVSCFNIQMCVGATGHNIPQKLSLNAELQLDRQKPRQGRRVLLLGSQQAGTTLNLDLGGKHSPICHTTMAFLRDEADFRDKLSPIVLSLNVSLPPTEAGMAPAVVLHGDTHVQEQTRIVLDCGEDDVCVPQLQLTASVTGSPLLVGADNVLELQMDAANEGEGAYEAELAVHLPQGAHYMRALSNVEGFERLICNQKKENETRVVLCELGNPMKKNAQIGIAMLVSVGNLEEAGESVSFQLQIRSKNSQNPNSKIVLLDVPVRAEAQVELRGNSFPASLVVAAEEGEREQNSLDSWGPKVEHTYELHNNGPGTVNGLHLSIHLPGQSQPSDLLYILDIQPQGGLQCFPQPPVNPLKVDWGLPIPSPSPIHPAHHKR
T1 sequence (P08514 891-1039 partner limits assumed): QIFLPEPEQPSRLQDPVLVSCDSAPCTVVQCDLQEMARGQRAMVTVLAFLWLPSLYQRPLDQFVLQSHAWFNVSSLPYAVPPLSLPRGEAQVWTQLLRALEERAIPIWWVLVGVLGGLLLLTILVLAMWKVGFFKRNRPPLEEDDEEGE
T1 sequence (P05106 27-788): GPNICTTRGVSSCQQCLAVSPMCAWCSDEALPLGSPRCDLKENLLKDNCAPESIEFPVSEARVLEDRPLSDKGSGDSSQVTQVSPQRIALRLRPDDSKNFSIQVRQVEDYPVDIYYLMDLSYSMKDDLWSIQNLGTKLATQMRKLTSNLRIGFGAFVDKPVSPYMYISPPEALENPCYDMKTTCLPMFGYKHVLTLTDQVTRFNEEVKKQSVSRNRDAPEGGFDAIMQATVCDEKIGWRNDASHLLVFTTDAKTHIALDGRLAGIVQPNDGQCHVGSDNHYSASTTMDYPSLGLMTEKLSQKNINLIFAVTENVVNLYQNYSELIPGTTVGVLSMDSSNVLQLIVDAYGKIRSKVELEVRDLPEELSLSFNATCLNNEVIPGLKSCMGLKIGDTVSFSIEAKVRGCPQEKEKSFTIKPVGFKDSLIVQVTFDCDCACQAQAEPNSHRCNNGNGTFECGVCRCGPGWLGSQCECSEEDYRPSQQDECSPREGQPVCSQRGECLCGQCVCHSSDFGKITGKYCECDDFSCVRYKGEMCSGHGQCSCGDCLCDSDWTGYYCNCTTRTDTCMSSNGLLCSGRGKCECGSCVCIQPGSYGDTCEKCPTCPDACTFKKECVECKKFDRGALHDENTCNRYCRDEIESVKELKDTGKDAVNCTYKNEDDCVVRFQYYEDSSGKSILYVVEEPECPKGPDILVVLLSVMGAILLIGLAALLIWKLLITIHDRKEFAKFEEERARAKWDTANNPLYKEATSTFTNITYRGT

SMILES | INHIBITION @ 250 uM RECEPTOR allBb3 SUBSTRATE FIBRINOGEN
CCOC1OC(COCc2ccccc2)C(O)C(OCc2cccc(N)c2)C1NC(=O)c1ccc(C(=O)O)cc1 (single isomer, unassigned) [Compound 69] | − (0% to 35% inhibition at 250 micromolar)
Nc1cccc(COC2C(O)C(COCc3ccccc3)OC(O)C2NC(=O)c2ccc(C(=O)O)cc2)c1 (single isomer, unassigned) [Compound 70] | + (36% to 60% inhibition at 250 micromolar)
Nc1cccc(COC2C(O)C(COCc3ccccc3)OC(O)C2NC(=O)c2ccc(C(=O)O)cc2)c1 (single isomer, unassigned) [Compound 71] | − (0% to 35% inhibition at 250 micromolar)
CCOC1OC(COCc2ccc(Br)cc2)C(O)C(OCc2cccc(N)c2)C1NC(=O)c1ccc(C(=O)O)cc1 (single isomer, unassigned) [Compound 72] | + (36% to 60% inhibition at 250 micromolar)
CCOC1OC(COCc2ccc(Br)cc2)C(O)C(OCc2cccc(N)c2)C1NC(=O)c1ccc(C(=O)O)cc1 (single isomer, unassigned) [Compound 73] | ++ (61% to 80% inhibition at 250 micromolar)
Nc1cccc(COC2C(O)C(COCc3ccc(Br)cc3)OC(O)C2NC(=O)c2ccc(C(=O)O)cc2)c1 (single isomer, unassigned) [Compound 74] | − (0% to 35% inhibition at 250 micromolar)
Nc1cccc(COC2C(O)C(COCc3ccc(Br)cc3)OC(O)C2NC(=O)c2ccc(C(=O)O)cc2)c1 (single isomer, unassigned) [Compound 75] | + (36% to 60% inhibition at 250 micromolar)
CCOC1OC(COCC(=O)O)C(O)C(OCc2cccc(N)c2)C1NC(=O)c1ccc(Cl)cc1 (single isomer, unassigned) [Compound 76] | − (0% to 35% inhibition at 250 micromolar)
CCOC1OC(COCC(=O)O)C(O)C(OCc2cccc(N)c2)C1NC(=O)c1ccc(Cl)cc1 (single isomer, unassigned) [Compound 77] | ++ (61% to 80% inhibition at 250 micromolar)
CCOC1OC(COCc2ccc(C(=O)O)cc2)C(O)C(OCc2cccc(N)c2)C1NC(=O)c1ccc(Cl)cc1 (single isomer, unassigned) [Compound 78] | − (0% to 35% inhibition at 250 micromolar)
CCOC1OC(COCc2ccc(C(=O)O)cc2)C(O)C(OCc2cccc(N)c2)C1NC(=O)c1ccc(Cl)cc1 (single isomer, unassigned) [Compound 79] | + (36% to 60% inhibition at 250 micromolar)
Nc1cccc(COC2C(O)C(COCc3ccc(C(=O)O)cc3)OC(O)C2NC(=O)c2ccc(Cl)cc2)c1 (single isomer, unassigned) [Compound 81] | + (36% to 60% inhibition at 250 micromolar)
Nc1cccc(COC2C(O)C(COCc3ccc(C(=O)O)cc3)OC(O)C2NC(=O)c2ccc(Cl)cc2)c1 (single isomer, unassigned) [Compound 82] | ++ (61% to 80% inhibition at 250 micromolar)
CCOC1C(O)C(COCC(=O)O)OC(OCc2ccccc2)C1NC(=O)c1cccc(N)c1 (single isomer, unassigned) [Compound 84] | − (0% to 35% inhibition at 250 micromolar)
CCOC1C(O)C(COCC(=O)O)OC(OCc2ccccc2)C1NC(=O)c1cccc(N)c1 (single isomer, unassigned) [Compound 85] | − (0% to 35% inhibition at 250 micromolar)
CCOC1C(O)C(COCc2ccc(C(=O)O)cc2)OC(OCc2ccccc2)C1NC(=O)CCNC(=N)N (single isomer, unassigned) [Compound 86] | − (0% to 35% inhibition at 250 micromolar)
CCOC1C(O)C(COCc2ccc(C(=O)O)cc2)OC(OCc2ccccc2)C1NC(=O)CCNC(=N)N (single isomer, unassigned) [Compound 87] | − (0% to 35% inhibition at 250 micromolar)
CCOC1C(O)C(COCc2cccc(N)c2)OC(OCc2ccccc2)C1NC(=O)CCC(=O)O (single isomer, unassigned) [Compound 88] | − (0% to 35% inhibition at 250 micromolar)

same assay, conditions: substrate vitronectin, human platelet membrane preparation

SMILES | INHIBITION 250 uM RECEPTOR allBb3 SUBSTRATE VITRONECTIN
CCOC1OC(COCc2ccccc2)C(O)C(OCc2cccc(N)c2)C1NC(=O)c1ccc(C(=O)O)cc1 (single isomer, unassigned) [Compound 69] | +++ (81% to 100% inhibition at 250 micromolar)
Nc1cccc(COC2C(O)C(COCc3ccccc3)OC(O)C2NC(=O)c2ccc(C(=O)O)cc2)c1 (single isomer, unassigned) [Compound 70] | +++ (81% to 100% inhibition at 250 micromolar)
Nc1cccc(COC2C(O)C(COCc3ccccc3)OC(O)C2NC(=O)c2ccc(C(=O)O)cc2)c1 (single isomer, unassigned) [Compound 71] | +++ (81% to 100% inhibition at 250 micromolar)
CCOC1OC(COCc2ccc(Br)cc2)C(O)C(OCc2cccc(N)c2)C1NC(=O)c1ccc(C(=O)O)cc1 (single isomer, unassigned) [Compound 72] | +++ (81% to 100% inhibition at 250 micromolar)
CCOC1OC(COCc2ccc(Br)cc2)C(O)C(OCc2cccc(N)c2)C1NC(=O)c1ccc(C(=O)O)cc1 (single isomer, unassigned) [Compound 73] | +++ (81% to 100% inhibition at 250 micromolar)
Nc1cccc(COC2C(O)C(COCc3ccc(Br)cc3)OC(O)C2NC(=O)c2ccc(C(=O)O)cc2)c1 (single isomer, unassigned) [Compound 74] | +++ (81% to 100% inhibition at 250 micromolar)
Nc1cccc(COC2C(O)C(COCc3ccc(Br)cc3)OC(O)C2NC(=O)c2ccc(C(=O)O)cc2)c1 (single isomer, unassigned) [Compound 75] | +++ (81% to 100% inhibition at 250 micromolar)
CCOC1OC(COCC(=O)O)C(O)C(OCc2cccc(N)c2)C1NC(=O)c1ccc(Cl)cc1 (single isomer, unassigned) [Compound 76] | − (0% to 35% inhibition at 250 micromolar)
CCOC1OC(COCC(=O)O)C(O)C(OCc2cccc(N)c2)C1NC(=O)c1ccc(Cl)cc1 (single isomer, unassigned) [Compound 77] | +++ (81% to 100% inhibition at 250 micromolar)
CCOC1OC(COCc2ccc(C(=O)O)cc2)C(O)C(OCc2cccc(N)c2)C1NC(=O)c1ccc(Cl)cc1 (single isomer, unassigned) [Compound 78] | +++ (81% to 100% inhibition at 250 micromolar)
CCOC1OC(COCc2ccc(C(=O)O)cc2)C(O)C(OCc2cccc(N)c2)C1NC(=O)c1ccc(Cl)cc1 (single isomer, unassigned) [Compound 79] | +++ (81% to 100% inhibition at 250 micromolar)
Nc1cccc(COC2C(O)C(COCc3ccc(C(=O)O)cc3)OC(O)C2NC(=O)c2ccc(Cl)cc2)c1 (single isomer, unassigned) [Compound 81] | +++ (81% to 100% inhibition at 250 micromolar)
Nc1cccc(COC2C(O)C(COCc3ccc(C(=O)O)cc3)OC(O)C2NC(=O)c2ccc(Cl)cc2)c1 (single isomer, unassigned) [Compound 82] | + (36% to 60% inhibition at 250 micromolar)
CCOC1C(O)C(COCC(=O)O)OC(OCc2ccccc2)C1NC(=O)c1cccc(N)c1 (single isomer, unassigned) [Compound 84] | − (0% to 35% inhibition at 250 micromolar)
CCOC1C(O)C(COCC(=O)O)OC(OCc2ccccc2)C1NC(=O)c1cccc(N)c1 (single isomer, unassigned) [Compound 85] | +++ (81% to 100% inhibition at 250 micromolar)
CCOC1C(O)C(COCc2ccc(C(=O)O)cc2)OC(OCc2ccccc2)C1NC(=O)CCNC(=N)N (single isomer, unassigned) [Compound 86] | +++ (81% to 100% inhibition at 250 micromolar)
CCOC1C(O)C(COCc2ccc(C(=O)O)cc2)OC(OCc2ccccc2)C1NC(=O)CCNC(=N)N (single isomer, unassigned) [Compound 87] | +++ (81% to 100% inhibition at 250 micromolar)
CCOC1C(O)C(COCc2cccc(N)c2)OC(OCc2ccccc2)C1NC(=O)CCC(=O)O (single isomer, unassigned) [Compound 88] | ++ (61% to 80% inhibition at 250 micromolar)

biological target: T2, αVβ3 integrin (Homo sapiens, UniProt P05106+P06756); test: ELISA: inhibition of binding of αVβ3 integrin (source WM-115 cell line) to coated extracellular matrix protein; conditions: WM-115 cell line as integrin source
T2 construct: the cell line WM-115 was used as a source of αVβ3 integrin; endogenous in cells; host or cells: WM-115 cell line
Outline: as §1

T2 sequence (P06756 31-889 limits assumed): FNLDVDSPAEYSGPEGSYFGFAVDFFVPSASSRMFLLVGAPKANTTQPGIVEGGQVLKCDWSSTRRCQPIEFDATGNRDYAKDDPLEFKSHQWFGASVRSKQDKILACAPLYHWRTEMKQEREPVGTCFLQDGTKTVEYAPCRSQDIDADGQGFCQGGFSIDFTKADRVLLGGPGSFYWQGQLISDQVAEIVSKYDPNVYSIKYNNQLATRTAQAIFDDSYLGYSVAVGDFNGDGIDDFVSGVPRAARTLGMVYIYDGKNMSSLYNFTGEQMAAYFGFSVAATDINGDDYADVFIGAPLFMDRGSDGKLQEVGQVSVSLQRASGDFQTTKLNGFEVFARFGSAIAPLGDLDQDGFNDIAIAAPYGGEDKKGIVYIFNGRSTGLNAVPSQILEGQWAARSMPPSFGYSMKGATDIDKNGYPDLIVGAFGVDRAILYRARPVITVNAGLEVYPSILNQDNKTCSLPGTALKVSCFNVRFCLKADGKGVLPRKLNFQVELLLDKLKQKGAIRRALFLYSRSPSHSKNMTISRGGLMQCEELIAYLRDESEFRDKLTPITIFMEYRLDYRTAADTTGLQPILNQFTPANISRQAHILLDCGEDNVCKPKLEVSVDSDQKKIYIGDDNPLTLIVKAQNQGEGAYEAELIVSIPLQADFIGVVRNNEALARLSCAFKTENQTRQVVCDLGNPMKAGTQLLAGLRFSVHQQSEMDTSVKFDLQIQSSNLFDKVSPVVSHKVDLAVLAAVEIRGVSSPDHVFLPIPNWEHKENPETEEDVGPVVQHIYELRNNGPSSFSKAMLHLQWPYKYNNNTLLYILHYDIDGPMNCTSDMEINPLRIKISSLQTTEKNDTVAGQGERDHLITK
T2 sequence (P06756 891-1048 partner limits assumed): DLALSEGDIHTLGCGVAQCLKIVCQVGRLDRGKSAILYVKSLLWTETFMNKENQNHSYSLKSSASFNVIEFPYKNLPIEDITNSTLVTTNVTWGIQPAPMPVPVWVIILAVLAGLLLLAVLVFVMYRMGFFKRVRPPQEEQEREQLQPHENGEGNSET
T2 sequence (P05106 27-788): as the sequence (P05106 27-788) above

SMILES | INHIBITION 250 uM RECEPTOR aVb3 SUBSTRATE FIBRINOGEN
CCOC1OC(COCc2ccccc2)C(O)C(OCc2cccc(N)c2)C1NC(=O)c1ccc(C(=O)O)cc1 (single isomer, unassigned) [Compound 69] | +++ (81% to 100% inhibition at 250 micromolar)
Nc1cccc(COC2C(O)C(COCc3ccccc3)OC(O)C2NC(=O)c2ccc(C(=O)O)cc2)c1 (single isomer, unassigned) [Compound 70] | +++ (81% to 100% inhibition at 250 micromolar)
Nc1cccc(COC2C(O)C(COCc3ccccc3)OC(O)C2NC(=O)c2ccc(C(=O)O)cc2)c1 (single isomer, unassigned) [Compound 71] | +++ (81% to 100% inhibition at 250 micromolar)
CCOC1OC(COCc2ccc(Br)cc2)C(O)C(OCc2cccc(N)c2)C1NC(=O)c1ccc(C(=O)O)cc1 (single isomer, unassigned) [Compound 72] | +++ (81% to 100% inhibition at 250 micromolar)
CCOC1OC(COCc2ccc(Br)cc2)C(O)C(OCc2cccc(N)c2)C1NC(=O)c1ccc(C(=O)O)cc1 (single isomer, unassigned) [Compound 73] | − (0% to 35% inhibition at 250 micromolar)
Nc1cccc(COC2C(O)C(COCc3ccc(Br)cc3)OC(O)C2NC(=O)c2ccc(C(=O)O)cc2)c1 (single isomer, unassigned) [Compound 74] | − (0% to 35% inhibition at 250 micromolar)
Nc1cccc(COC2C(O)C(COCc3ccc(Br)cc3)OC(O)C2NC(=O)c2ccc(C(=O)O)cc2)c1 (single isomer, unassigned) [Compound 75] | − (0% to 35% inhibition at 250 micromolar)
CCOC1OC(COCC(=O)O)C(O)C(OCc2cccc(N)c2)C1NC(=O)c1ccc(Cl)cc1 (single isomer, unassigned) [Compound 76] | − (0% to 35% inhibition at 250 micromolar)
CCOC1OC(COCC(=O)O)C(O)C(OCc2cccc(N)c2)C1NC(=O)c1ccc(Cl)cc1 (single isomer, unassigned) [Compound 77] | + (36% to 60% inhibition at 250 micromolar)
CCOC1OC(COCc2ccc(C(=O)O)cc2)C(O)C(OCc2cccc(N)c2)C1NC(=O)c1ccc(Cl)cc1 (single isomer, unassigned) [Compound 78] | +++ (81% to 100% inhibition at 250 micromolar)
CCOC1OC(COCc2ccc(C(=O)O)cc2)C(O)C(OCc2cccc(N)c2)C1NC(=O)c1ccc(Cl)cc1 (single isomer, unassigned) [Compound 79] | +++ (81% to 100% inhibition at 250 micromolar)
Nc1cccc(COC2C(O)C(COCc3ccc(C(=O)O)cc3)OC(O)C2NC(=O)c2ccc(Cl)cc2)c1 (single isomer, unassigned) [Compound 81] | +++ (81% to 100% inhibition at 250 micromolar)
Nc1cccc(COC2C(O)C(COCc3ccc(C(=O)O)cc3)OC(O)C2NC(=O)c2ccc(Cl)cc2)c1 (single isomer, unassigned) [Compound 82] | ++ (61% to 80% inhibition at 250 micromolar)
CCOC1C(O)C(COCC(=O)O)OC(OCc2ccccc2)C1NC(=O)c1cccc(N)c1 (single isomer, unassigned) [Compound 84] | − (0% to 35% inhibition at 250 micromolar)
CCOC1C(O)C(COCC(=O)O)OC(OCc2ccccc2)C1NC(=O)c1cccc(N)c1 (single isomer, unassigned) [Compound 85] | − (0% to 35% inhibition at 250 micromolar)
CCOC1C(O)C(COCc2ccc(C(=O)O)cc2)OC(OCc2ccccc2)C1NC(=O)CCNC(=N)N (single isomer, unassigned) [Compound 86] | − (0% to 35% inhibition at 250 micromolar)
CCOC1C(O)C(COCc2ccc(C(=O)O)cc2)OC(OCc2ccccc2)C1NC(=O)CCNC(=N)N (single isomer, unassigned) [Compound 87] | − (0% to 35% inhibition at 250 micromolar)
CCOC1C(O)C(COCc2cccc(N)c2)OC(OCc2ccccc2)C1NC(=O)CCC(=O)O (single isomer, unassigned) [Compound 88] | − (0% to 35% inhibition at 250 micromolar)
